The results in this text go back to patent US6683052B1, “Lipopeptides containing an interferon-γ fragment, and uses thereof in pharmaceutical compositions” (Institut National de la Sante et de la Recherche Medicale …, priority 1998, dated 2004).

Where no end group is shown, it is not given here. The star is where a group is joined. Palmitoyl = CCCCCCCCCCCCCCCC(=O)*

One series concerns murine splenocytes. Nature of the series: Induction of class II CMH molecules (IA^b) on murine splenocytes by lipopeptide fragments (FIG. 12A). The conditions noted are these: for increase in class II CMH molecules (FIG. 12A): murine splenocytes, 24 hours, different concentrations. In kind it is cell-based, 129 Sv mice. As for the experimental part: (§1) Fresh splenocytes are obtained from 7-week-old female 129 Sv mice. The COLO 205 human colon carcinoma lines are obtained from the ATCC (American Type Culture Collection). The splenocytes and COLO 205 cells are maintained in RPMI 1640 (Gibco BRL, Courbevoie, France), supplemented with 10% FCS (Gibco BRL), sodium pyruvate (Sigma, St. Louis, USA) and incubated at 37° C. in 5% CO2.
(§2) The cells were stimulated for 24 hours with different concentrations of MuL, L-mIFNγ 113-132, L-mIFNγ 122-132 or MuSL. The murine splenocytes and COLO 205 cells were labelled for the expression of II MHC with 1 μg of anti-mouse IA^b FITC monoclonal antibody (mAb) (Pharmingen, San Diego, USA) and 10 μl of anti-HLA-DR clone TAL.1B5 mouse FITC mAb (Cymbus Biotechnology Ltd, Hants, UK), respectively. A negative control mouse FITC IgG1 (DAKO S. A., Trappes, France) was used as control isotype. The cells were incubated for 1 hour at 4° C. in PBS, 10% FCS and then washed, and the expression of II MHC was analysed by flow cytometry using a Coulter EPILS II cytometer (Coulter, Hialeah, Fla., USA) at a rate of 10,000 events per sample.
(§3) FIG. 12: Induction of class II CMH molecules by human or murine cells stimulated with lipopeptides derived from IFN-γ. The murine splenocytes (A) and the COLO 205 human cell line (B) were incubated for 24 hours with different concentrations of lipopeptides derived from IFN-γ. The cells were labelled with a monoclonal antibody directed against the class II CMH molecules, and analysed by flow cytometry. The ratio between the average fluorescence intensity of the cells treated with the lipopeptides and between the average fluorescence intensity of the untreated cells is indicated on the y-axis. The lipopeptide concentration is indicated in μM on the x-axis; MuL: solid circles; MuSL : hollow circles; L-mIFN 113-132: triangles; L-mIFN 122-132: X.

In series [1] the test system is murine splenocytes and COLO 205 cells. As to the kind of experiment: Cytotoxicity at high lipopeptide concentrations. In kind it is cell-based.
A further series relates to COLO 205 human cell line. As to the kind of experiment: Induction of HLA-DR on COLO 205 cells by lipopeptide fragments (FIG. 12B). The series is classed as cell-based. The conditions noted are these: for increase in class II CMH molecules (FIG. 12B): COLO 205, 24 hours, different concentrations. As for the experimental part: as §1, §2, §3
Series [2] has as its system human colon carcinoma cells (COLO 205). Nature of the series: Induction of HLA-DR on COLO 205 cell line, flow cytometry. The series is classed as cell-based. Particulars: COLO 205, 50 μM. How it is done: Principle: human colon carcinoma cells (COLO 205) are analysed for their ability to express HLA-DR after having been stimulated with the various peptide constructs.
Procedure. The cell line COLO 205 is cultured at a rate of 3×10^5 cells per well in a 24-well culture plate (NUNC). The following day, the cells are stimulated with the various peptide constructs at a final concentration of 50 μM in 1 ml of medium, and are incubated at 37° C. for 24 hours. The cells are then recovered and labelled using 3 μg of an anti HLA-DR mouse biotinylated monoclonal antibody (clone L243). After revelation with FITC streptavidin, the cells are analysed by flow cytometry.
Background: Flow cytometry measures light scatter and fluorescence of single cells or particles in a stream.

Series [3] relates to L929 cells infected with the VSV virus. The series is classed as cell-based, mouse. The conditions noted are these: 1 to 10 μM.
Another series relates to P388D1. Nature of the series: Induction of class II CMH molecules on P388D1 cell line, flow cytometry. The series is classed as cell-based, murine. Particulars: 50 μM, stimulated for 24 hours. As for the experimental part: (§4) Principle: to check the induction of class II CMH molecules on cell lines (P388D1 and WEHI3: murine myelomonocytes) with the above-mentioned peptides.
(§5) Procedure. The cells are cultured the day before at a rate of 3×10^5 cells per well in 24-well culture plates (NUNC). The following day, the cells are stimulated with the various lipopeptide and peptide constructs at a final concentration of 50 μM in 1 ml of medium. After incubation for 24 hours at 37° C. in an atmosphere saturated with 5% CO2, the cells are recovered and incubated for 1 hour at 4° C. with 3 μg of a biotinylated mouse anti-I-Ad monoclonal antibody (Pharmingen, San Diego, USA). After revelation for 30 minutes with FITC streptavidin used at a dilution of 1:100 (Sigma, St. Louis, USA), the expression of class II molecules is determined by flow cytometry.

Series [4] has as its system splenocytes taken from mice 129 (Wild type: WT). As to the kind of experiment: Involvement of the IFN-γ receptor: IA^d and Fc-γ R on splenocytes of wild type mice 129. The series is classed as cell-based. Particulars: stimulation for 24 hours, flow cytometry. How it is done: (§6) Procedure. The splenocytes and peritoneal cells taken from an animal (Balb/c mouse) are re-cultured at a rate of 2.5×10^6 splenocytes and […] peritoneal cells per well in 24-well plates (NUNC) stimulated with 50 μM of the different peptides in a final volume of 1 ml. After stimulation for 24 hours, the cells are labelled with the anti IA^d monoclonal antibody described in the preceding paragraph, according to the same protocol. To detect the Fc-γ R, the cells are labelled with 1 μg of a rat anti Fc-γ R monoclonal antibody (Pharmingen, San Diego, USA). Next, the cells are incubated for ½ hour with a rat anti IgG biotinylated polyclonal antibody. The revelation is then carried out with FITC streptavidin used at a dilution of 1:100 (Sigma, St. Louis, USA). The expression of Fc-γ R is determined by flow cytometry.
(§7) Principle. to confirm that the biological activity observed was effectively associated with a stimulation of the IFN-γ receptor, we repeated the same experiments, in parallel on splenocytes taken from mice 129 (Wild type: WT) and on cells taken from mice 129 no longer expressing the alpha chain of the IFN-γ receptor (KO mice).
(§8) Procedure. The experimental protocol followed is identical to that described in paragraph 2 above.

In series [5] the test system is splenocytes stimulated with anti-CD40 and IL-4. Nature of the series: Inhibition of IL-4 activity: anti-CD40 + IL-4 proliferation of splenocytes, tritiated thymidine. The series is classed as cell-based, Balb/c mice. Particulars: 10 μM. The text has this: It is commonly described that the immunomodulatory potential of IFN-γ lies in its ability to polarize the establishment of a type-1 T helper (Th1) response, while at the same time inhibiting the development of a type-2 T helper (Th2) response. This inhibitory action on the polarization of the Th2 response takes place mainly via inhibition of the activity of IL-4. […] The stimulation of splenocytes with an anti-CD40 antibody (antibody directed against a surface cell label: CD40) and IL-4 induces a proliferation of the murine B cells, following a synergistic action between the CD40 and IL-4 stimulation (Hasbold et al. 1994).
The splenocytes taken from Balb/c mice are cultured and stimulated with anti-CD40 (10 μg/ml) and IL-4 (10 U/ml). 10 μM of the synthetic agonist of IFN-γ (MuL) or of its control lipopeptide (MuSL) are added. After stimulation for 24 hours, tritiated thymidine is added at a rate of 0.5 μCurie per well. After incubation for 18 hours, the cells are filtered off and the incorporation of tritiated thymidine is evaluated. This incorporation is proportional to the cell proliferation.

Another series concerns splenocytes. Nature of the series: Expression of class II CMH molecules and Fc-γ receptors on splenocytes taken from an animal. The series is classed as cell-based, Balb/c mouse. The conditions noted are these: 50 μM, 24 hours. As for the experimental part:
(§9) Principle: to evaluate the activity of the vectorized agonist on cells taken from an animal and treated in vitro (in order to assess the value of a subsequent in vivo study).
as §6

Series [6] relates to cells taken from mice 129 no longer expressing the alpha chain of the IFN-γ receptor (KO mice). Nature of the series: Involvement of the IFN-γ receptor: IA^d and Fc-γ R on cells of mice lacking the alpha chain of the IFN-γ receptor. In kind it is cell-based. The conditions noted are these: stimulation for 24 hours, flow cytometry. As for the experimental part:
as §6, §7, §8

For series [7], the system named is human peripheral blood mononuclear cells (PBMC). Nature of the series: Induction of HLA-DR, ICAM-1 and VCAM-1 on human PBMC. The series is classed as cell-based. The conditions noted are these: 24 hours. As for the experimental part:
Principle. In the light of the results obtained on the human cell line and on human primary cultures, the immunostimulatory potential of MuL was evaluated on human cells taken directly from a healthy donor.
Procedure. PBMCs are isolated from a bag of blood and the cells are then cultured and stimulated for 24 hours with 25 and 50 μM of MuSL or MuL in a final volume of 1 ml. The cells are then recovered and labelled for the expression of VCAM-1, ICAM-1 and HLA-DR according to the protocol already described above. Finally, the cells are analysed by flow cytometry.

A further series concerns WEHI3. As to the kind of experiment: Induction of class II CMH molecules on WEHI3 cell line, flow cytometry. The conditions noted are these: 50 μM, stimulated for 24 hours. In kind it is cell-based, murine. How it is done: as §4, §5
The test system of a further series is peritoneal cells. As to the kind of experiment: Expression of class II CMH molecules and Fc-γ receptors on peritoneal cells taken from an animal. The conditions noted are these: 50 μM, 24 hours, flow cytometry. In kind it is cell-based, Balb/c mouse. As for the experimental part: as §9, §6

“L-mIFN-γ 113-132: fragment 113-132 of murine IFNγ, carboxamide end, N-terminal Ac-K(Pam) group (Ac-K(Palmitoyl)IRVVHQLLPESSLRKRKRSR-NH2; SMILES CCCCCCCCCCCCCCCC(=O)NCCCC[C@H](NC(C)=O)C(=O)N[C@H](C(=O)N[C@@H](CCCNC(=N)N)C(=O)N[C@H](C(=O)N[C@H](C(=O)N[C@@H](Cc1c[nH]cn1)C(=O)N[C@@H](CCC(N)=O)C(=O)N[C@@H](CC(C)C)C(=O)N[C@@H](CC(C)C)C(=O)N1CCC[C@H]1C(=O)N[C@@H](CCC(=O)O)C(=O)N[C@@H](CO)C(=O)N[C@@H](CO)C(=O)N[C@@H](CC(C)C)C(=O)N[C@@H](CCCNC(=N)N)C(=O)N[C@@H](CCCCN)C(=O)N[C@@H](CCCNC(=N)N)C(=O)N[C@@H](CCCCN)C(=O)N[C@@H](CCCNC(=N)N)C(=O)N[C@@H](CO)C(=O)N[C@@H](CCCNC(=N)N)C(N)=O)C(C)C)C(C)C)[C@@H](C)CC)”: the “increase in the expression of class II CMH molecules” value in the series with murine splenocytes (50 μM, splenocytes freshly obtained from mice) turned out to be 13 fold. For the same substance, the “factor of increase of the expression of IA^b” value in the series with murine splenocytes (100 μM (280 μg/ml), murine cells) is on record as 18. In the series on murine splenocytes, the “increase in class II CMH molecules (FIG. 12A)” value was “marked dose-dependent increase”. For the same substance, in series [1], the cytotoxicity entry is “not cytotoxic”. In addition, the “increase in the expression of HLA-DR” value in the series on COLO 205 human cell line (50 μM, human cells) was found to be 10 fold; in the series on COLO 205 human cell line (75 μM (210 μg/ml), human cell lines), 15 fold. For the same substance, in the series with COLO 205 human cell line, the “increase in class II CMH molecules (FIG. 12B)” value is reported as “marked dose-dependent increase”.

In the case of “MuSL: control "scrambled" lipopeptide: MuL in which the order of the amino acids has been rearranged, Ac-K(Pam) (Ac-K(Palmitoyl)PSRENQNAVKIQKLSVVLRREQKHRVERLAFRNQSLPF)”, the “induction of the expression of HLA-DR” value in series [2] is “no activity”. Moreover, the “% HLA-DR” value in series [2] (24 hours, flow cytometry) was 8.9%. The “effect on viral lysis (FIG. 2)” value in series [3] was “no effect on viral lysis”. For the same substance, in the series on P388D1, the “percentage of class II CMH detected by flow cytometry, P388D1” value was 13%. In addition, in series [4], the “WT mice II CMH (%)” value amounted to 4% and the “WT mice RFc (%)” value was 2%. In the series with murine splenocytes, the “increase in class II CMH molecules (FIG. 12A)” value is given as “neither L-mIFN-γ 122-132 nor MuSL are active”. For the same substance, the “effect on the synergistic anti-CD40 + IL-4 proliferation (FIG. 4)” value in [5] is recorded as “no effect”. In the series with splenocytes (flow cytometry), the “splenocytes II CMH (%)” value was 14% and the “splenocytes RFc (%)” value was found to be 15%. Moreover, the “increase of IA^d and of Fc-γ R on the treated cells” value with splenocytes (splenocytes and peritoneal cells) is “no notable activity”. For the same substance, in series [6], the “KO mice II CMR (%)” value stood at 4% and the “KO mice RFc (%)” value worked out at 3%. Moreover, in series [7] (25 μM), the “percentage of ICAM-1 detected on PBMCs” value is recorded as 29.4% and the “percentage of VCAM-1 detected on PBMCs” value stood at 39.7%. Also, in series [7] (50 μM), the “percentage of HLA-DR detected on PBMCs” value was 58.3%, the “percentage of ICAM-1 detected on PBMCs” value is reported as 32% and the “percentage of VCAM-1 detected on PBMCs” value is reported as 86.9%. For the same substance, in the series with COLO 205 human cell line, the “increase in class II CMH molecules (FIG. 12B)” value is reported as “neither L-mIFN-γ 122-132 nor MuSL are active”. In addition, in the series on WEHI3, the “percentage of class II CMH detected by flow cytometry, WEH1” value was found to be 15%. In the series on peritoneal cells, the “peritoneal cells II CMH (%)” value is 13% and the “peritoneal cells RFc (%)” value amounted to 20%.
